Results taken from ChEMBL document CHEMBL4813921, “Optimization of WZ4003 as NUAK inhibitors against human colorectal cancer” (Eur J Med Chem, 2021).

Tested on: U2OS
Test: Induction of apoptosis in human U2OS cells assessed as necrotic cells at 10 uM measured after 48 hrs by Annexin V-FITC/PI staining based flow cytometry method (reference value: 0.4%)
Assay type: functional

## CCC(=O)Nc1cccc(Oc2nc(Nc3ccc(N4CCN(C)CC4)cc3)ncc2Cl)c1
  Activity: 0.6%
